Measurements taken from publication PMC3148848 (Journal of medicinal chemistry, 2009).

Target: SARS-CoV PLpro (Severe acute respiratory syndrome coronavirus, UniProt P0C6X7)
Assay type: biochemical

`Cc1ccccc1C(=O)N[C@H](C)c1ccc2ccccc2c1` [lead] was tested, and the “mode of inhibition (kinetic studies)” value was “reversible inhibitor”.
